Columns and labels:
μ opioid receptor [1] = biological target: T1, μ opioid receptor (Homo sapiens, UniProt P35372); assay: μ opioid receptor agonism, G protein signaling pathway; type: cell-based; conditions: for Biased Agonism Selectivity Coefficient k: G protein pathway relative to β arrestin (ratio of the two EC50)
μ opioid receptor [2] = biological target: T1, μ opioid receptor; assay: μ opioid receptor agonism, β arrestin pathway; type: cell-based
[3] = μ opioid receptor, G protein pathway, read-out: EC50 (G protein)
[4] = μ opioid receptor, β arrestin pathway, read-out: EC50 (β arrestin)

T1 sequence (P35372 whole entry, species assumed): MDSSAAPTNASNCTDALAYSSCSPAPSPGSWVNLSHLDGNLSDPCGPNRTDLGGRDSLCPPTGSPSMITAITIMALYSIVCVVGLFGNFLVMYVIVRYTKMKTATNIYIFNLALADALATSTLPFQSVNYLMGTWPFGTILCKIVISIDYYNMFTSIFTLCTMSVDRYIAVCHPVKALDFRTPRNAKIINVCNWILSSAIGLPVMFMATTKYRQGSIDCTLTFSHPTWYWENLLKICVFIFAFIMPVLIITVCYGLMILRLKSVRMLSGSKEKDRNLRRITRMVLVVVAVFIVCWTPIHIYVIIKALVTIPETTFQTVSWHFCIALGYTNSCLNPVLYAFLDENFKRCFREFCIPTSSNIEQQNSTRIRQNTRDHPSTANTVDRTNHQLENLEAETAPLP

Compound `CC(C)Oc1ccc(CNCc2cn(-c3ccccc3)nc2-c2ccncc2)cc1` [Compound 14] has an EC50 (μ opioid receptor [1]) of 521 nM.
With `CCOC(=O)c1cccc(CNCc2cn(-c3ccccc3)nc2-c2ccccc2)c1` [Compound 10] the EC50 (μ opioid receptor [1]) was 13900 nM, the “Biased Agonism Selectivity Coefficient k” value (μ opioid receptor [1]) was 7.6 and the EC50 (μ opioid receptor [2]) was 1830 nM.
In the case of `c1ccc(-n2cc(CNCc3ccc4c(c3)OCO4)c(-c3ccncc3)n2)cc1` [Compound 12], the “Biased Agonism Selectivity Coefficient k” value (μ opioid receptor [1]) is reported as 2228.6, the EC50 (μ opioid receptor [1]; [3]) is reported as 10.5 nM and the EC50 (μ opioid receptor [2]; [4]) is reported as 23400 nM.
`CCCNC(=O)c1cccc(CNCc2cn(-c3ccccc3)nc2-c2ccncc2)c1` [Compound 1] was tested, and the EC50 (μ opioid receptor [1]) was 704 nM, the “Biased Agonism Selectivity Coefficient k” value (μ opioid receptor [1]) was 26.7 and the EC50 (μ opioid receptor [2]) was 18800 nM.
For `c1ccc(-n2cc(CNCc3ccc4occc4c3)c(-c3ccncc3)n2)cc1` [Compound 3], the “Biased Agonism Selectivity Coefficient k” value (μ opioid receptor [1]) was 157.9, the EC50 (μ opioid receptor [1]; [3]) was 1.24 nM and the EC50 (μ opioid receptor [2]; [4]) was 195 nM.
`c1ccc(-c2nn(-c3ccccc3)cc2CNCc2ccc3occc3c2)cc1` [Compound 4] was tested, and the EC50 (μ opioid receptor [1]) was 139 nM, the “Biased Agonism Selectivity Coefficient k” value (μ opioid receptor [1]) was 32.8 and the EC50 (μ opioid receptor [2]) was 4570 nM.
`CCCOC(=O)c1cccc(CNCc2cn(-c3ccccc3)nc2-c2ccncc2)c1` [Compound 9] was tested, and the EC50 (μ opioid receptor [1]) was 22200 nM, the “Biased Agonism Selectivity Coefficient k” value (μ opioid receptor [1]) was 13.6 and the EC50 (μ opioid receptor [2]) was 1630 nM.
`CCOC(=O)c1cccc(CNCc2cn(-c3ccccc3)nc2-c2ccncc2)c1` [Compound 11] was tested, and the EC50 (μ opioid receptor [1]) was 7220 nM, the “Biased Agonism Selectivity Coefficient k” value (μ opioid receptor [1]) was 9.3 and the EC50 (μ opioid receptor [2]) was 67500 nM.
`c1ccc(-n2cc(CNCc3ccc4c(c3)CCO4)c(-c3ccncc3)n2)cc1` [Compound 13] was tested, and the “Biased Agonism Selectivity Coefficient k” value (μ opioid receptor [1]) was 940.9, the EC50 (μ opioid receptor [1]; [3]) was 6.26 nM and the EC50 (μ opioid receptor [2]; [4]) was 5890 nM.
`c1ccc(-n2cc(CNCCn3cccn3)c(-c3ccncc3)n2)cc1` [Compound 15] gave an EC50 (μ opioid receptor [1]) of 3100 nM.
In the case of `CCCNC(=O)c1cccc(CNCc2cn(-c3ccccc3)nc2-c2ccccc2)c1` [Compound 2], the EC50 (μ opioid receptor [1]) is reported as 146 nM, the “Biased Agonism Selectivity Coefficient k” value (μ opioid receptor [1]) is reported as 34.8 and the EC50 (μ opioid receptor [2]) is reported as 5060 nM.
`CCCOC(=O)c1cccc(CNCc2cn(-c3ccccc3)nc2-c2ccccc2)c1` [Compound 8] was tested, and the EC50 (μ opioid receptor [1]) was 6450 nM, the “Biased Agonism Selectivity Coefficient k” value (μ opioid receptor [1]) was 11.3 and the EC50 (μ opioid receptor [2]) was 569 nM.
`Cc1cc(C)n2c(CNCc3cn(-c4ccccc4)nc3-c3ccccc3)cnc2n1` [Compound 6] gave an EC50 (μ opioid receptor [1]) of 2190 nM.

Source: patent publication US20260008754A1, “N-SUBSTITUTED DERIVATIVES OF L-(L-PHENYL-3-ARYL)-LFF-PYRAZOL-4-YL)METHANAININE, METHOD FOR THEIR PRODUCTION AND THEIR APPLICATIONS” (priority 2022, published 2026)
